Experimental data as given in US20060223073A1, “Methods of using a DNase I-like enzyme” (priority 2005, published 2006).

Molecular target: bovine pancreatic DNase I (Bos taurus, UniProt P00639)
Details: for reduction of enzyme activity induced by the addition of salt: 100 mM sodium chloride added to reaction with 40% (v/v) alcohol (FIG. 2); for DNase I activity, % of Standard conditions: alcohol at 40% (v/v) in the Standard reaction, without sodium chloride (FIG. 2)
Protocol: The enzymatic hydrolysis of calf thymus genomic DNA was assayed using a method modified from that described by Desai and Shankar (Eur. J. Biochem., 2000; 267: 5123-5135). The standard reaction mixture was 0.1 mL volume, containing 30 μg of sonicated native calf thymus genomic DNA (Sigma, St. Louis Mo., #D-3664), in a buffer solution composed of 100 mM Tris HCl(pH 8.0)/10 mM MgSO4/1 mM CaCl2, with appropriately diluted DNase I (usually 0.02-1.0 Enzyme Units, as defined below). The reaction was initiated by the addition of enzyme, with incubation at room temperature for a defined period of time (usually 10-20 minutes), after which the reaction was terminated by rapid sequential addition of 0.1 mL of 1 mg/mL Bovine Serum Albumin (Sigma, #A3803) and 1.0 mL of ice cold 2% (v/v) Perchloric Acid. The terminated reaction mixture was vortex mixed, then chilled on ice for 20-30 minutes, follwed by centrifugation at 16,000×g for 10 minutes at 4 degrees centrigrade. The clarified supernatant contains acid-soluble oligonucleotides liberated by the action of DNase I-like activity, at concentrations determined using absorbance measurements determined in a 1 cm pathlength cell in the Agilent 8453 spectrophotometer (Agilent Technologies, Wilmington Del.). A molar extinction coefficient of 10,000 M^−1cm^−1 was employed for oligonucleotide concentration estimation in the acidic solution. Unit activity under these assay conditions is defined as umol of acid-soluble oligonucleotides generated per minute at 25 degrees centigrade. In the experiments shown in the examples that follow, bovine pancreatic DNase I is employed to illustrate the effects of various manipulations on the activity of this enzyme. Typically, the reaction employs approximately 0.1 enzyme units, as defined by the Kunitz assay, as discussed above (see Kunitz. J. Gen. Physiol. 1950; 33:349-362).
Bovine pancreatic DNase I (Fermentas, #EN0523) was assayed for gDNA hydrolytic activity, as described above, using the Standard reaction conditions, but modified by the inclusion of various quantities of iso-propanol (i-propanol, 2-propanol), with or without the further inclusion of sodium chloride at 100 mM.

bovine pancreatic DNase I, sequence (P00639 23-282): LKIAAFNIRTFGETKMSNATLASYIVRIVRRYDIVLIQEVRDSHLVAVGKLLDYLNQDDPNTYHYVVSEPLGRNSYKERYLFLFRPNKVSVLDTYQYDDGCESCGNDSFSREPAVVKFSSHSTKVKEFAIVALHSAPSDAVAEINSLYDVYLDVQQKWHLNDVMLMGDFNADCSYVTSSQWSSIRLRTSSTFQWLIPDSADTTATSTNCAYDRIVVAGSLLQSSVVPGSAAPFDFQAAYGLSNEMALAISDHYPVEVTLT

Row | Compound | reduction of enzyme activity induced by the addition of salt | DNase I activity, % of the Standard activity level (20% i-propanol added to solution containing 100 mM sodium chloride (FIG. 1)) | DNase I activity relative to standard conditions (20% i-propanol, no sodium chloride, room temperature (FIG. 1)) | DNase I activity, % of Standard conditions | DNase I enzyme activity observed (high salt (100 mM sodium chloride) and high alcohol content (FIG. 1)) | DNase I activity, % of the standard condition (higher concentrations of i-propanol (above 20%, up to and above 80%), no sodium chloride (FIG. 1)) | DNase I activity, % of Standard reaction conditions (alcohol at 40% (v/v) plus 100 mM sodium chloride (FIG. 2))
1 | CC(C)O [i-propanol, iso-propanol] | least prevented the inhibition of the enzyme by salt | 101% | more than doubling the activity | 40% | greater than 50% | about 50% | –
2 | CCO [Ethanol] | three-fold reduction | – | – | 40% | – | – | –
3 | n-propanol | – | – | – | about 10% | – | – | less than 5%
